# Assay: Screen of EC formulations for substances that photoprotect emamectin benzoate
# Type: physicochemical
# Design: key: #1 represents no improvement; #3 represents those photoprotectants that conferred a significant improvement in photostability
# Settings: performance of the photostabiliser relative to the non-photostabilised EC; 2% w/w emamectin benzoate EC, photoprotectant to insecticide 1:1; deposits on glass irradiated in Suntest, HPLC-MS
# Procedure: The photoprotectant to be screened was either dissolved or dispersed in a simple Solvesso 200 based EC formulation containing 2% w/w emamectin benzoate, 10% w/w Soprophor BSU and 3% w/w phenyl sulfonate calx. The weight ratio of photoprotectant to insecticide was 1:1.
# The ECs were diluted in water to the typical field application rate of emamectin benzoate, 10 g ai/ha at a spray volume of 200 l/ha. 2 μl droplets were applied to clean glass microscope slides and allowed to dry prior to being irradiated in an Atlas XLS+ Suntest artificial sunlight simulator, which employs a filtered xenon light source providing a spectral energy distribution similar to natural outdoor exposure. After irradiation, deposits were removed from the glass slides by a solvent wash and quantified by high performance liquid chromatography (HPLC) with mass-spectrometric (MS) detection.
row,Compound,Screen Result
1,"CCN(CCC#N)c1ccc(N=Nc2ccc([N+](=O)[O-])cc2)cc1 [Example 1F, 3-[ethyl[4-[(4-nitrophenyl)azo]phenyl]amino]-propanenitrile]",3
2,"Nc1ccc(N=Nc2ccc([N+](=O)[O-])cc2)cc1 [Example 1G, 4-[(4-nitrophenyl)azo]-benzenamine]",3
3,"Oc1ccc2ccccc2c1N=Nc1ccccc1 [Example 1N, 1-(phenylazo)-2-naphthalenol]",3
4,"Nc1c(S(=O)(=O)[O-])cc(Nc2ccccc2)c2c1C(=O)c1ccccc1C2=O.[Na+] [Example 1A, monosodium 1-amino-9,10-dihydro-9,10-dioxo-4-(phenylamino)-2-anthracenesulfonate]",3
5,Oc1ccc2ccccc2c1N=Nc1ccc(N=Nc2ccccc2)cc1 [Example 1K],3
6,"Cc1ccccc1N=Nc1cc(C)c(N=Nc2c(O)ccc3ccccc23)cc1C [Example 1H, 1-[[2,5-dimethyl-4-[(2-methylphenol)azo]phenyl]azo]-2-naphthalenol]",3
7,"CC(C)(C)CC(C)(C)c1ccc([O-])c(Sc2cc(C(C)(C)CC(C)(C)C)ccc2[O-])c1.CCCCN.[Ni+2] [Example 1S, 2,2′-thiobis[4-t-octylphenolato]-beta-butylamine nickel (II)]",3
8,"CC(C)Nc1ccc(NC(C)C)c2c1C(=O)c1ccccc1C2=O [Example 1B, 1,4-bis[(1-methylethyl)amino]-9,10-anthracenedione]",3
9,"Cc1cc(N=Nc2ccc(N=Nc3c(O)ccc4ccccc34)c(C)c2)ccc1O [Example 1O, 1-[[2-methyl-4-[(2-methylphenol)azo]phenyl]azo]-2-naphthalenol]",3
10,"CC1(C)Nc2cccc3c(N=Nc4ccc(N=Nc5ccccc5)c5ccccc45)ccc(c23)N1 [Example 1M, 2,3-dihydro-2,2-dimethyl-6-[[4-(phenylazo)-1-naphthalenyl]azo]-1H-perimidine]",3
11,"Cc1ccccc1N=Nc1c(O)ccc2ccccc12 [Example 1J, 1-(ortho-tolylazo)-2-naphthol]",3
12,"Oc1ccc(N=Nc2ccc(N=Nc3ccccc3)c3ccccc23)cc1 [Example 1E, 4-[[4-(phenylazo)-1-naphthalenyl]azo]-phenol]",3
13,"Cc1cc(S(=O)(=O)[O-])ccc1N=Nc1c(O)ccc2ccccc12.[Na+] [Example 1C, monosodium 4-[(2-hydroxy-1-naphthalenyl)azo]-3-methyl-benzenesulfonate]",3
14,1-[[4-[(dimethylphenyl)azo]dimethylphenyl]azo]-2-naphthalenol [Example 1I],3
15,"O=[N+]([O-])c1ccc(N=Nc2ccc(Nc3ccccc3)cc2)cc1 [Example 1D, 4-[(4-nitrophenyl)azo]-N-phenyl-benzenamine]",3
16,"COc1ccc(C=C(C(=O)OC2CC(C)(C)N(C)C(C)(C)C2)C(=O)OC2CC(C)(C)N(C)C(C)(C)C2)cc1 [Example 1R, propanedioic acid, [(4-methoxy-phenyl)-methylene]-, bis(1,2,2,6,6-pentamethyl-4-piperidinyl)ester]",3
